Measurements taken from article PMC5658359, “A potent small-molecule inhibitor of the DCN1-UBC12 interaction that selectively blocks cullin 3 neddylation” (Nature Communications, 2017).
Converted amounts (≈) assume the structure as drawn. “And” between values parts separate entries of the source, which are not always exact repeats. Equal entries are not always repeated. Where two headings read alike, the source gives them in different places. Where a SMILES comes first, the peptide text is derived from it. [ ]: non-standard residue; d: D form. Ala(6-iPr-benzothiazol-2-yl) = CC(C)c1ccc2nc(C[C@H](N)C(=O)O)sc2c1; Ala(benzothiazol-2-yl) = N[C@@H](Cc1nc2ccccc2s1)C(=O)O; Phe(3-CF3) = N[C@@H](Cc1cccc(C(F)(F)F)c1)C(=O)O; Phe(3,5-F2) = N[C@@H](Cc1cc(F)cc(F)c1)C(=O)O; Phe(3-CN) = N#Cc1cccc(C[C@H](N)C(=O)O)c1; 2Nal = N[C@@H](Cc1ccc2ccccc2c1)C(=O)O; hPhe = N[C@@H](CCc1ccccc1)C(=O)O

How the values were obtained:
DCN1 = DCN1 (Homo sapiens, UniProt Q96GG9); experiment: Competitive fluorescence polarization (FP) binding assay with probe 46, DCN1; design: Human DCN1 (residues 58–259) were cloned into a pDEST17 plasmid containing an N-terminal His6 tag; made in house; host or cells: Rosetta2 cells (E. coli); settings: for times weaker (less potent) than 30 in binding to DCN1: comparator 30; for Ki: competitive FP, probe 46 5 nM, DCN1 50 nM; for times less potent than 33 in binding to DCN1: comparator 33; for times less potent than 1 in binding to DCN1: comparator 1
Protocol: The FP competitive binding experiments were performed to determine the binding affinities of all synthesized DCN1 inhibitors. […] Serial dilutions of DCN1 or DCN2 protein were mixed with the probe (46) to a final volume of 200 μl in the assay buffer (100 mM phosphate buffer, pH = 6.5, with 0.02% Tween-20 and 2% DMSO). The final probe concentration was 5 nM in both DCN1 and DCN2 assays. Plates were incubated at room temperature for 30 min with gentle shaking for equilibrium.
The IC50 and Ki values of compounds were determined in competitive binding experiments. Mixtures of compounds in DMSO (4 μl) and of pre-incubated protein/probe complex solution (196 μl) in the assay buffer were added into assay plates that were incubated at room temperature for 30 min with gentle shaking. Final concentrations of DCN1 protein and fluorescent probe (46) were 50 and 5 nM, respectively. […] FP values were measured as described above. IC50 values were determined by nonlinear regression fitting of the competition curves using the dose response inhibition equation (four parameters, variable slopes) included in the Prism/GraphPad software. K i values were calculated using the methods described earlier.

[1] = Equilibrium aqueous solubility, small-scale shake-flask method; settings: for solubility at 24 h / solubility: thermodynamic from solid
Protocol: (§1) The equilibrium aqueous solubility of an individual compound at different pH values was determined with a small-scale shake-flask method in Eppendorf tubes. Compounds were added as powder in excess to Britton-Robinson buffer at pH 2.0 or phosphate buffer at pH 7.4 until heterogeneous suspensions were obtained. Suspensions containing excessive compound powder were sonicated in a water bath for 30 min followed by incubation at room temperature with shaking for 24 h to achieve thermodynamic equilibrium. […] Supernatants obtained were filtered using Millipore MultiScreen filter plates equipped with 0.45 µm membranes. Compound concentrations in the saturated solutions were measured by UV spectroscopy at the maximum absorption wavelengths of each compound that were pre-determined by a spectrum scan.

DCN3 = molecular target: T1, DCN3 (Homo sapiens, UniProt Q8IWE4); experiment: Label-free BLI assay, DCN3; format: binding; settings: concentrations up to 10 µM
T1 construct: DCN2 (residues 62–259), DCN3 (residues 86–304), DCN4 (residues 102–292) and DCN5 (residues 47–237); His6-TEV (N, cleaved yes); made in house; host or cells: Rosetta2 cells (E. coli)
T1 sequence (Q8IWE4 86-304): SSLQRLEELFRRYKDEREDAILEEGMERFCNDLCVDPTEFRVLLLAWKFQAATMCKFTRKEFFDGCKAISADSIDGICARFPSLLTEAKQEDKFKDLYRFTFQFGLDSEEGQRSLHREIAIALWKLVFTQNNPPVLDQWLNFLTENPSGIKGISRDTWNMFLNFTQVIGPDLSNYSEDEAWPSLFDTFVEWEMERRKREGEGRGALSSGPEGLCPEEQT

DCN4 = molecular target: T2, DCN4 (Homo sapiens, UniProt Q92564); experiment: Label-free BLI assay, DCN4; format: binding; settings: concentrations up to 10 µM
T2 construct: DCN2 (residues 62–259), DCN3 (residues 86–304), DCN4 (residues 102–292) and DCN5 (residues 47–237); His6-TEV (N, cleaved yes); made in house; host or cells: Rosetta2 cells (E. coli)
T2 sequence (Q92564 102-292): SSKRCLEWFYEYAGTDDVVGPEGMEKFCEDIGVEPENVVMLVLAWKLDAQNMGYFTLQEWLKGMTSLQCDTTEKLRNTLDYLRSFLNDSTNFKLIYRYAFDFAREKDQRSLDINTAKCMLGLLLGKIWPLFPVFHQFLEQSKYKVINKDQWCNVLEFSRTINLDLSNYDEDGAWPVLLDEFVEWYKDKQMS

DCN5 = molecular target: T3, DCN5 (Homo sapiens, UniProt Q9BTE7); experiment: Label-free BLI assay, DCN5; format: binding; settings: concentrations up to 10 µM
T3 construct: DCN2 (residues 62–259), DCN3 (residues 86–304), DCN4 (residues 102–292) and DCN5 (residues 47–237); His6-TEV (N, cleaved yes); made in house; host or cells: Rosetta2 cells (E. coli)
T3 sequence (Q9BTE7 47-237): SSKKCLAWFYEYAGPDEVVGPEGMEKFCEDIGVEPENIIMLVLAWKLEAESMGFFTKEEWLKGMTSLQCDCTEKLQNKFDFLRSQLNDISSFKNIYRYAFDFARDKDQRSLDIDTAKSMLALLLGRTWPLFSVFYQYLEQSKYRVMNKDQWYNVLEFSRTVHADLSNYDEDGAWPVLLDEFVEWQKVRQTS

NRF2 mRNA = experiment: qRT-PCR of NRF2 mRNA in THLE2 cells; format: cell-based; settings: THLE2, 10 µM
Description: Total RNA in treated cells was isolated with the RNeasy Mini Kit (Qiagen, Germantown, MD). RNA was reverse transcribed into complementary DNA (cDNA) using high capacity RNA-to-cDNA kit (Applied Biosystems, Carlsbad, California). […] GAPDH was used as an internal reference. […] Error bars correspond to SD from three independent experiments.

[2] = thermodynamic from solid
Protocol: as §1

[3] = Britton-Robinson buffer, pH 2.02, aqueous buffer
[4] = phosphate buffer, pH 7.4, aqueous buffer

DCN1, sequence (Q96GG9 58-259): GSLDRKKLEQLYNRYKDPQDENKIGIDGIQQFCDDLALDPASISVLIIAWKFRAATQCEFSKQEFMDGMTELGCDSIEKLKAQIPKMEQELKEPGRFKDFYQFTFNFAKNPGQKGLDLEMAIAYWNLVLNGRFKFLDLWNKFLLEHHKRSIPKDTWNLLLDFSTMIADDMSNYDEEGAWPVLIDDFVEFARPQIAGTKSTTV

CC[C@H](C)[C@@H](CN)NC(=O)[C@H](Cc1nc2ccc(C(C)C)cc2s1)NC=O [compound 31]
times weaker (less potent) than 30 in binding to DCN1 (DCN1): 34 times
Ki (DCN1): 2.24 ± 0.369 µM

CCC(=O)N[C@@H](Cc1nc2ccc(C(C)C)cc2s1)C(=O)N[C@@H](C)CN [compound 38]
times less potent than 33 in binding to DCN1 (DCN1): > 400 times
Ki (DCN1): 7.6 ± 0.38 µM

CC[C@H](C)[C@@H](CN)NC(=O)[C@H](Cc1nc2ccc(C(C)C)cc2s1)NC(=O)C(C)C [compound 34]
Ki (DCN1): 0.061 µM

Ac-MIKLFSLKQ-NH2 [compound 4]
times less potent than 1 in binding to DCN1 (DCN1): 2–3 times

CC[C@H](C)[C@H](NC(=O)[C@H](CCSC)NC(C)=O)C(=O)N[C@@H](CCCCN)C(N)=O [compound 10] (Ac-Met-Ile-Lys-NH2)
binding to DCN1 (in words) (DCN1; at concentrations up to 1,000 µM): no appreciable binding
Ki (DCN1): > 1000 µM

CC[C@H](C)[C@H](NC(=O)[C@H](Cc1nc2ccc(Cl)cc2s1)NC(C)=O)C(=O)N[C@@H](CCCCN)C(=O)N[C@@H](CC(C)C)C(N)=O [compound 26]
times more potent than 24 in binding to DCN1 (DCN1; comparator 24): 4 times

CC[C@H](C)[C@H](NC(=O)[C@H](Cc1cc(F)cc(F)c1)NC(C)=O)C(=O)N[C@@H](CCCCN)C(=O)N[C@@H](CC(C)C)C(N)=O [compound 20] (Ac-[Phe(3,5-F2)]IKL-NH2)
Ki (DCN1): 82 ± 9.1 µM

CCCC(=O)N[C@@H](Cc1nc2ccc(C(C)C)cc2s1)C(=O)N[C@H](CN)[C@@H](C)CC [compound 35]
Ki (DCN1): 0.27 ± 0.034 µM

CC[C@H](C)[C@@H](CN)NC(=O)[C@H](Cc1nc2ccc(C(C)C)cc2s1)NC(C)=O [compound 30]
solubility at 24 h ([1]; Britton-Robinson buffer, pH 2, aqueous buffer): > 20000 µM
solubility at 24 h [1, 3]: > 20000 µM
solubility at 24 h [1, 4]: > 20000 µM
Ki (DCN1): 0.066 µM and 0.0664 µM

CC[C@H](C)[C@H](NC(=O)[C@H](Cc1cccc(C#N)c1)NC(C)=O)C(=O)N[C@@H](CCCCN)C(=O)N[C@@H](CC(C)C)C(N)=O [compound 16] (Ac-[Phe(3-CN)]IKL-NH2)
Ki (DCN1): > 1000 µM

CCC(=O)N[C@@H](Cc1nc2ccc(C(C)C)cc2s1)C(=O)N[C@H](CN(C)C)C1CCCCC1 [compound 41]
Ki (DCN1): 0.017 µM

CCC(=O)N[C@@H](Cc1nc2ccc(C(C)C)cc2s1)C(=O)N[C@H](CN)C1CCCCC1 [compound 40]
aqueous solubility (in words) [1]: good
solubility at 24 h [1, 3]: 4750 µM (≈ 2110 µg/mL)
solubility at 24 h [1, 4]: 1910 µM (≈ 847 µg/mL)
Ki (DCN1): 0.013 µM

CC[C@H](C)[C@H](NC(=O)[C@H](CCc1ccccc1)NC(C)=O)C(=O)N[C@@H](CCCCN)C(=O)N[C@@H](CC(C)C)C(N)=O [compound 12] (Ac-[hPhe]IKL-NH2)
factor by which binding affinity to DCN1 is decreased (DCN1; homophenylalanine in place of Met1, compared with 9/11): 6

CC[C@H](C)[C@H](NC(=O)[C@H](Cc1ccc2ccccc2c1)NC(C)=O)C(=O)N[C@@H](CCCCN)C(=O)N[C@@H](CC(C)C)C(N)=O [compound 23] (Ac-[2Nal]IKL-NH2)
times more potent than 11 in binding to DCN1 (DCN1; comparator 11): 11 times

CCC(=O)N[C@@H](Cc1nc2ccc(C(C)C)cc2s1)C(=O)NCCN [compound 37]
times less potent than 33 in binding to DCN1 (DCN1): > 1000 times
Ki (DCN1): 32 ± 4.2 µM

CC[C@H](C)[C@H](NC(=O)[C@H](Cc1cccc(C(F)(F)F)c1)NC(C)=O)C(=O)N[C@@H](CCCCN)C(=O)N[C@@H](CC(C)C)C(N)=O [compound 17] (Ac-[Phe(3-CF3)]IKL-NH2)
Ki (DCN1): > 1000 µM

CCC(=O)N[C@H](Cc1nc2ccc(C(C)C)cc2s1)C(=O)N[C@@H](CNC(=O)CCN1CCOCC1)C1CCCCC1 [DI-591DD]
binding to DCN3 (in words) (DCN3): no appreciable binding
binding to DCN4 (in words) (DCN4): no appreciable binding
binding to DCN5 (in words) (DCN5): no appreciable binding
mRNA level of NRF2 (in words) (NRF2 mRNA): no effect

CCC(=O)N[C@@H](Cc1nc2ccc(C(C)C)cc2s1)C(=O)N[C@H](CNC(=O)CN1CCOCC1)C1CCCCC1 [compound 43]
Ki (DCN1): 0.019 µM and 0.0185 µM

CC[C@H](C)[C@H](NC(=O)[C@H](Cc1nc2ccc(C(C)C)cc2s1)NC(C)=O)C(=O)N[C@@H](CCCCN)C(N)=O [compound 28]
solubility ([1]; pH 2.02, aqueous buffer): > 20000 µM
solubility ([1]; pH 7.4, aqueous buffer): 7470 µM (≈ 4090 µg/mL)
times less potent than 27 in binding to DCN1 (DCN1; comparator 27): 37 times
Ki (DCN1): 0.174 ± 0.023 µM

CC[C@H](C)[C@H](NC(=O)[C@H](Cc1c[nH]c2ccccc12)NC(C)=O)C(=O)N[C@@H](CCCCN)C(=O)N[C@@H](CC(C)C)C(N)=O [compound 21] (Ac-WIKL-NH2)
Ki (DCN1): 82 µM

CC[C@H](C)[C@H](NC(=O)[C@H](Cc1nc2cc(Cl)ccc2s1)NC(C)=O)C(=O)N[C@@H](CCCCN)C(=O)N[C@@H](CC(C)C)C(N)=O [compound 25]
times less potent than 24 in binding to DCN1 (DCN1; comparator 24): 17 times

CC[C@H](C)[C@H](NC(=O)[C@H](CCSC)NC(C)=O)C(=O)N[C@@H](CCCCN)C(=O)N[C@@H](CC(C)C)C(N)=O [compound 9] (Ac-MIKL-NH2)
Ki (DCN1): 50 µM

Ac-MIKLFSLKQQ-NH2 [compound 3]
times less potent than 1 in binding to DCN1 (DCN1): 2–3 times

CCC(=O)N[C@@H](Cc1nc2ccc(C(C)C)cc2s1)C(=O)N[C@H](CN)[C@@H](C)CC [compound 33]
Ki (DCN1): 0.019 µM

Ac-MIKLFSLK-NH2 [compound 5]
times less potent than 1 in binding to DCN1 (DCN1): 2–3 times

CC[C@H](C)[C@H](NC(=O)[C@H](Cc1nc2ccc(C(C)C)cc2s1)NC(C)=O)C(N)=O [compound 29]
solubility at 24 h [1, 3]: 1050 µM (≈ 440 µg/mL)
solubility at 24 h [1, 4]: 1280 µM (≈ 535 µg/mL)
Ki (DCN1): 0.292 µM

CC[C@H](C)[C@H](NC(=O)[C@H](Cc1nc2ccccc2s1)NC(C)=O)C(=O)N[C@@H](CCCCN)C(=O)N[C@@H](CC(C)C)C(N)=O [compound 24] (Ac-[Ala(benzothiazol-2-yl)]IKL-NH2)
solubility ([2]; pH 2.02, aqueous buffer): 1480 µM (≈ 912 µg/mL)
solubility ([2]; pH 7.4, aqueous buffer): 251 µM (≈ 155 µg/mL)

CC[C@H](C)[C@@H](CN)NC(=O)[C@H](Cc1nc2ccc(C(C)C)cc2s1)NC(=O)NC [compound 36]
Ki (DCN1): 0.149 ± 0.028 µM

CCC(=O)N[C@@H](Cc1nc2ccc(C(C)C)cc2s1)C(=O)N[C@H](CN)Cc1ccccc1 [compound 39]
Ki (DCN1): 0.079 µM

CC[C@H](C)[C@@H](CN)NC(=O)[C@@H](N)Cc1nc2ccc(C(C)C)cc2s1 [compound 32]
times weaker (less potent) than 30 in binding to DCN1 (DCN1): > 1000 times
Ki (DCN1): 67 ± 8.3 µM

CCC(=O)N[C@@H](Cc1nc2ccc(C(C)C)cc2s1)C(=O)N[C@H](CN1CCOCC1)C1CCCCC1 [compound 42]
Ki (DCN1): 0.044 µM

CC[C@H](C)[C@H](NC(=O)[C@H](Cc1nc2ccc(C(C)C)cc2s1)NC(C)=O)C(=O)N[C@@H](CCCCN)C(=O)N[C@@H](CC(C)C)C(N)=O [compound 27] (Ac-[Ala(6-iPr-benzothiazol-2-yl)]IKL-NH2)
aqueous solubility (in words) [1]: poor
solubility ([1]; pH 2.02, aqueous buffer): 227 µM (≈ 150 µg/mL)
solubility ([1]; pH 7.4, aqueous buffer): 31 µM (≈ 20.5 µg/mL)
times more potent than 9 in binding to DCN1 (DCN1; comparator tetrapeptide 9): > 10,000 times
Ki (DCN1): 0.0047 ± 0.0014 µM
